Several values for one entry are separate records, joined by “and”; a condition that tells them apart may be missing. Equal values may be shown once. Where a SMILES comes first, the peptide text is derived from it. [ ]: non-standard residue; d: D form. Hyp = O=C(O)[C@@H]1C[C@@H](O)CN1
Test system: IL-17A
Test: Example 9 Luminex, LPS hPBMCs: IL-17A
Assay type: cell-based, human
Procedure: Treatment Human PBMCs were pretreated with YY-101, YDE-011 and YDE-043 or reference compound; Xiidra® at various concentration (ranging from 1 nM to 100 uM) for 2 h before stimulation. An equal volume of 0.5% DMSO was used as a vehicle control. Then, the cells were treated with LPS at 5 ug/ml. The supernatants from treated cells were harvested at 24 h and placed in a 96 well for Luminex cytokine & chemokine profiling using a Luminex 200 multiplex assay (Luminex; R&D system, USA).
The main study arm with triplicate wells per group in a 24-well plate: • 1. Blank • 2. PBMC: 0.5% DMSO • 3. PBMC+LPS (5 ug/ml) • 4. PBMC+YY-101 100 uM • 5. PBMC+YY-101 10 uM • 6. PBMC+YY-101 1 uM • 7. PBMC+YY-101 0.1 uM • 8. PBMC+YY-101 0.01 uM • 9. PBMC+LPS (5 ug/ml)+Xiidra®100 uM • 10. PBMC+LPS (5 ug/ml)+Xiidra® 10 uM • 11. PBMC+LPS (5 ug/ml)+Xiidra® 1 uM • 12. PBMC+LPS (5 ug/ml)+Xiidra®0.1 uM • 13. PBMC+LPS (5 ug/ml)+Xiidra®0.01 uM • 14. PBMC+LPS (5 ug/ml)+Xiidra®0.001 uM • 15. PBMC+LPS (5 ug/ml)+YY-101 100 uM • 16. PBMC+LPS (5 ug/ml)+YY-101 10 uM • 17. PBMC+LPS (5 ug/ml)+YY-101 1 uM • 18. PBMC+LPS (5 ug/ml)+YY-101 0.1 uM • 19. PBMC+LPS (5 ug/ml)+YY-101 0.01 uM • 20. PBMC+LPS (5 ug/ml)+YY-101 0.001 uM • 21. PBMC+LPS (5 ug/ml)+YDE-011 100 uM • 22. PBMC+LPS (5 ug/ml)+YDE-011 10 uM • 23. PBMC+LPS (5 ug/ml)+YDE-011 1 uM • 24. PBMC+LPS (5 ug/ml)+YDE-011 0.1 uM • 25. PBMC+LPS (5 ug/ml)+YDE-011 0.01 uM • 26. PBMC+LPS (5 ug/ml)+YDE-011 0.001 uM • 27. PBMC+LPS (5 ug/ml)+YDE-043 100 uM • 28. PBMC+LPS (5 ug/ml)+YDE-043 10 uM • 29. PBMC+LPS (5 ug/ml)+YDE-043 1 uM • 30. PBMC+LPS (5 ug/ml)+YDE-043 0.1 uM • 31. PBMC+LPS (5 ug/ml)+YDE-043 0.01 uM • 32. PBMC+LPS (5 ug/ml)+YDE-043 0.001 uM
Multiplex assay was used to measure 30 cytokines and chemokines. The 1:2, 1:10 and 1:200 diluted cell supernatant and serial dilution of the standard were dispensed into a 96 well plate at 50 ul/well. Then, the pre-mixed cocktail of antibody-coated magnetic beads was dispensed at 50 ul/well and incubated at room temperature for 2 h in a horizontal orbital microplate shaker at 800±500 rpm. The beads were washed using a magnetic device to prevent loss. The biotin-antibody was dispensed in 50 ul of each well and incubated at room temperature for 1 h in a shaker at 800±500 rpm. After washing, streptavidin-PE was added at 50 ul/well and incubated at room temperature for 30 min in a shaker under the same conditions. Finally, after washing, wash buffer (100 ul/well) was added to the plate and incubated in a shaker for 2 min. The Luminex™ 200 setting were set according to the manufacturer's protocol. The data was calculated with a standard five-parameter logistic nonlinear regression analysis of the data (xPonent software 4.2, USA). The levels of cytokine/chemokine are normalized to the live cell counts (1×10^5 cells/mL) and presented as concentrations per mL (pg/mL or ng/mL).

[1] = PBMC + LPS(5 ug/ml) + test article 0.1 uM, Mean
[2] = PBMC + LPS(5 ug/ml) + test article 0.1 uM, single replicates (1st, 2nd, 3rd)
[3] = PBMC + LPS(5 ug/ml) + test article 1 uM, Mean
[4] = PBMC + LPS(5 ug/ml) + test article 1 uM, single replicates (1st, 2nd, 3rd)
[5] = PBMC + LPS(5 ug/ml) + test article 10 uM, Mean
[6] = PBMC + LPS(5 ug/ml) + test article 10 uM, single replicates (1st, 2nd, 3rd)
[7] = PBMC + LPS(5 ug/ml) + test article 100 uM, Mean
[8] = PBMC + LPS(5 ug/ml) + test article 100 uM, single replicates (1st, 2nd, 3rd)
[9] = PBMC without LPS + test article 0.01 uM, Mean
[10] = PBMC without LPS + test article 0.01 uM, single replicates (1st, 2nd)
[11] = PBMC without LPS + test article 0.1 uM, Mean
[12] = PBMC without LPS + test article 0.1 uM, single replicates (1st, 2nd)
[13] = PBMC without LPS + test article 1 uM, Mean
[14] = PBMC without LPS + test article 1 uM, single replicates (1st, 2nd)
[15] = PBMC without LPS + test article 10 uM, Mean
[16] = PBMC without LPS + test article 10 uM, single replicates (1st, 2nd)
[17] = PBMC without LPS + test article 100 uM, Mean
[18] = PBMC without LPS + test article 100 uM, single replicates (1st, 2nd)

CC(C)C[C@H](NC(=O)CNC(=O)[C@H](CC(=O)O)NC(=O)[C@H](CCC(N)=O)NC(=O)CNC(=O)[C@@H]1C[C@@H](O)CN1)C(=O)N[C@@H](C)C(=O)NCC(=O)N1CCC[C@H]1C(=O)N[C@@H](CCCCN)C(=O)O [YY-101] (H-[Hyp]GQDGLAGPK-OH; N-terminus and C-terminus assumed)
conc/live cell, IL-17A (PBMC + LPS(5 ug/ml) + test article 0.01 uM, single replicates (1st, 2nd, 3rd)): 0.9 pg/10^5 and 1.0 pg/10^5 and 0.4 pg/10^5
Concentration, IL-17A [1]: 4.3 pg/mL
MFI, Bead name: IL-17A [1]: 2.5
conc/live cell, IL-17A [1]: 0.7 pg/10^5
Concentration, IL-17A [2]: 6.0 pg/ml (2×) and 1.0 pg/ml
MFI, Bead name: IL-17A [2]: 3.5 (2×) and 0.5
conc/live cell, IL-17A [2]: 1.0 pg/10^5 (2×) and 0.2 pg/10^5
Concentration, IL-17A [3]: 5.4 pg/mL
MFI, Bead name: IL-17A [3]: 3.2
conc/live cell, IL-17A [3]: 0.8 pg/10^5
Concentration, IL-17A [4]: 4.3 pg/ml (2×) and 7.5 pg/ml
MFI, Bead name: IL-17A [4]: 2.5 (2×) and 4.5
conc/live cell, IL-17A [4]: 0.7 pg/10^5 and 0.6 pg/10^5 and 1.2 pg/10^5
Concentration, IL-17A [5]: 3.3 pg/mL
MFI, Bead name: IL-17A [5]: 1.8
conc/live cell, IL-17A [5]: 0.5 pg/10^5
Concentration, IL-17A [6]: 4.3 pg/ml and 2.7 pg/ml (2×)
MFI, Bead name: IL-17A [6]: 2.5 and 1.5 (2×)
conc/live cell, IL-17A [6]: 0.7 pg/10^5 and 0.4 pg/10^5 (2×)
Concentration, IL-17A [7]: 1.6 pg/mL
MFI, Bead name: IL-17A [7]: 0.8
conc/live cell, IL-17A [7]: 0.3 pg/10^5
Concentration, IL-17A [8]: 1.0 pg/ml (2×) and 2.7 pg/ml
MFI, Bead name: IL-17A [8]: 0.5 (2×) and 1.5
conc/live cell, IL-17A [8]: 0.2 pg/10^5 (2×) and 0.4 pg/10^5
Concentration, IL-17A [9]: 7.5 pg/mL
MFI, Bead name: IL-17A [9]: 4.5
conc/live cell, IL-17A [9]: 1.5 pg/10^5
Concentration, IL-17A [10]: 7.5 pg/mL
MFI, Bead name: IL-17A [10]: 4.5
conc/live cell, IL-17A [10]: 1.5 pg/10^5 and 1.6 pg/10^5
Concentration, IL-17A [11]: 8.3 pg/mL
MFI, Bead name: IL-17A [11]: 5.0
conc/live cell, IL-17A [11]: 1.5 pg/10^5
Concentration, IL-17A [12]: 4.3 pg/mL and 12.2 pg/mL
MFI, Bead name: IL-17A [12]: 2.5 and 7.5
conc/live cell, IL-17A [12]: 1.0 pg/10^5 and 2.1 pg/10^5
Concentration, IL-17A [13]: 5.2 pg/mL
MFI, Bead name: IL-17A [13]: 3.0
conc/live cell, IL-17A [13]: 0.9 pg/10^5
Concentration, IL-17A [14]: 6.0 pg/mL and 4.3 pg/mL
MFI, Bead name: IL-17A [14]: 3.5 and 2.5
conc/live cell, IL-17A [14]: 1.1 pg/10^5 and 0.8 pg/10^5
Concentration, IL-17A [15]: 18.3 pg/mL
MFI, Bead name: IL-17A [15]: 11.5
conc/live cell, IL-17A [15]: 2.9 pg/10^5
Concentration, IL-17A [16]: 22.9 pg/mL and 13.8 pg/mL
MFI, Bead name: IL-17A [16]: 14.5 and 8.5
conc/live cell, IL-17A [16]: 3.6 pg/10^5 and 2.3 pg/10^5
Concentration, IL-17A [17]: 3.5 pg/mL
MFI, Bead name: IL-17A [17]: 2.0
conc/live cell, IL-17A [17]: 0.5 pg/10^5
Concentration, IL-17A [18]: 2.7 pg/mL and 4.3 pg/mL
MFI, Bead name: IL-17A [18]: 1.5 and 2.5
conc/live cell, IL-17A [18]: 0.4 pg/10^5 and 0.6 pg/10^5

Source: US20230146455A1, “TREATMENT OF INFLAMMATORY DISEASES WITH PEPTIDES AND PHARMACEUTICAL COMPOSITIONS” (Yuyu Pharma, Inc., priority 2020, published 2023)
